From paper PMC5775428, “Towards an experimental classification system for membrane active peptides” (Scientific Reports, 2018) come the findings set out here.

Like-named read-outs stand apart in the source and are kept apart here.

One assay relates to Escherichia coli. The following applies: Escherichia coli; for Minimum inhibitory concentration, Average: average of triplicates. The method, then: (§1) Antimicrobial activity was tested against three categories of human and plant pathogenic microorganisms: Gram-positive (Bacillus subtilis, Bacillus cereus, Staphylococcus aureus), Gram-negative (Escherichia coli, Pseudomonas aeruginosa, Erwinia carotovora, Pseudomonas syringae pv. tabaci, Xanthomonas campestris pv. citri) and yeasts (Candida albicans, Cryptococcus neoformans), as previously reported. […] The full list of peptide MICs was published in an accompanying paper, and is available in the current publication as supplementary dataset (Supplementary dataset 01).
(§2) The determination of the minimum inhibitory concentration (MIC) of peptides was performed as described in “Encrypted Antimicrobial Peptides from Plant Proteins”[7]. Briefly, MICs were determined following protocols M7-A10 and M27-A3 from Clinical & Laboratory Standards Institute (CLSI) for bacteria and yeasts, respectively. Different concentrations of IAPs (0.5 to 256 μM) were tested against several microorganisms in a final volume of 100 µL. Three biological repetitions, with 2 technical replicates each, were performed for each test, on polystyrene flat-bottom 96 wells microplates. The minimum inhibitory concentration (MIC) was defined as the concentration at which no cells were detected when visualized by optical microscopy. Please refer to the literature[7] for further details of the microbiological assays.

Another assay relates to Bacillus subtilis. The following applies: Bacillus subtilis. As for the experimental part: as §1, §2
The subject of another assay is Xanthomonas campestris. As for the experimental part: as §1, §2
The next assay has as its system Cryptococcus neoformans. The following applies: Cryptococcus neoformans. As for the experimental part: as §1, §2
For assay [1], the system named is Pseudomonas syringae pv. tabaci. As to conditions: Pseudomonas syringae pv. tabaci. The method, then:
as §1, §2

The next assay concerns Pseudomonas aeruginosa. As to conditions: Pseudomonas aeruginosa; for Minimum inhibitory concentration, Average: average of triplicates. The method, then: as §1, §2
The test system of another assay is Bacillus cereus. The following applies: Bacillus cereus. The method, then: as §1, §2
In a further assay the test system is Erwinia carotovora. The following applies: Erwinia carotovora. The method, then: as §1, §2
Another assay has as its system Candida albicans. As to conditions: Candida albicans; for Minimum inhibitory concentration, Average: average of triplicates. As for the experimental part:
as §1, §2

A further assay concerns Staphylococcus aureus. As to conditions: Staphylococcus aureus; for Minimum inhibitory concentration, Average: average of triplicates. The method, then: as §1, §2
[2] abbreviates: CLSI M27-A3, 0.5 to 256 μM tested, triplicate 1, also published in ref 7.

Take ANRLLEAYKMLLKFLGNLR [Gr02]: the Minimum inhibitory concentration in the assay with Escherichia coli (CLSI M7-A10, triplicate 1) is 4 µM; with Escherichia coli (triplicate 2), 4 µM; with Escherichia coli (triplicate 3), 4 µM; in the assay with Bacillus subtilis (CLSI M7-A10, triplicate 1), 1 µM; in the assay with Bacillus subtilis (triplicate 2) it was 1 µM; with Bacillus subtilis (triplicate 3), 1 µM. Also, the Minimum inhibitory concentration stood at 4 µM in the assay with Xanthomonas campestris (CLSI M7-A10, triplicate 1); 4 µM with Xanthomonas campestris (triplicate 2); 4 µM in the assay on Xanthomonas campestris (triplicate 3); 2 µM with Cryptococcus neoformans (CLSI M27-A3, triplicate 1); 2 µM with Cryptococcus neoformans (triplicate 2); 4 µM in the assay on Cryptococcus neoformans (triplicate 3). Moreover, the Minimum inhibitory concentration turned out to be 2 µM in [1] (CLSI M7-A10, triplicate 1); 2 µM in [1] (triplicate 2); 2 µM in [1] (triplicate 3); 32 µM with Pseudomonas aeruginosa (CLSI M7-A10, triplicate 1); 32 µM in the assay with Pseudomonas aeruginosa (triplicate 2); 32 µM with Pseudomonas aeruginosa (triplicate 3). Further, the Minimum inhibitory concentration came out at 4 µM in the assay on Bacillus cereus (CLSI M7-A10, triplicate 1); 4 µM in the assay with Bacillus cereus (triplicate 2); 4 µM in the assay with Bacillus cereus (triplicate 3); 1 µM in the assay with Erwinia carotovora (CLSI M7-A10, triplicate 1); 1 µM in the assay with Erwinia carotovora (triplicate 2); 1 µM in the assay on Erwinia carotovora (triplicate 3). Moreover, the Minimum inhibitory concentration worked out at 4 µM in the assay with Candida albicans (setting [2]); 4 µM in the assay on Candida albicans (triplicate 2); 4 µM in the assay with Candida albicans (triplicate 3); 1 µM with Staphylococcus aureus (CLSI M7-A10, triplicate 1); 1 µM in the assay with Staphylococcus aureus (triplicate 2); 1 µM in the assay on Staphylococcus aureus (triplicate 3). In addition, the “Minimum inhibitory concentration, Average” value in the assay with Escherichia coli came to 4.0 µM; in the assay on Bacillus subtilis (average of triplicates) it was 1.0 µM; with Xanthomonas campestris (average of triplicates), 4.0 µM; in the assay on Cryptococcus neoformans (average of triplicates) it was 2.7 µM; in assay [1] (average of triplicates), 2.0 µM; with Pseudomonas aeruginosa, 32.0 µM. Also, the “Minimum inhibitory concentration, Average” value in the assay with Bacillus cereus (average of triplicates) was determined as 4.0 µM; in the assay with Erwinia carotovora (average of triplicates), 1.0 µM; in the assay with Candida albicans it was 4.0 µM; in the assay on Staphylococcus aureus it was 1.0 µM.

Turning to “FLSLIPHAINAVSTLVHHF [PS-2, reference compound]”, the Minimum inhibitory concentration in the assay on Escherichia coli (CLSI M7-A10, triplicate 1) stood at 8 µM; with Escherichia coli (triplicate 2) it was 8 µM; with Escherichia coli (triplicate 3) it was 8 µM; with Pseudomonas aeruginosa (CLSI M7-A10, triplicate 1) it was 512 µM; in the assay on Pseudomonas aeruginosa (triplicate 2), 512 µM; with Pseudomonas aeruginosa (triplicate 3), 512 µM. The Minimum inhibitory concentration worked out at 32 µM in the assay on Candida albicans (setting [2]); 32 µM in the assay on Candida albicans (triplicate 2); 32 µM in the assay on Candida albicans (triplicate 3); 8 µM with Staphylococcus aureus (CLSI M7-A10, triplicate 1); 8 µM with Staphylococcus aureus (triplicate 2); 8 µM in the assay with Staphylococcus aureus (triplicate 3). Further, the “Minimum inhibitory concentration, Average” value in the assay with Escherichia coli was 8.0 µM; in the assay with Pseudomonas aeruginosa, 512.0 µM; in the assay on Candida albicans, 32.0 µM; with Staphylococcus aureus, 8.0 µM.

As for “GIGDILKNLAKAAGKAALHAVGESL [HSP-4, Hylaseptin-4, reference compound]”, the Minimum inhibitory concentration in the assay with Escherichia coli (CLSI M7-A10, triplicate 1) turned out to be 8 µM; in the assay with Escherichia coli (triplicate 2) it was 8 µM; in the assay on Escherichia coli (triplicate 3), 8 µM; with Pseudomonas aeruginosa (CLSI M7-A10, triplicate 1), 16 µM; with Pseudomonas aeruginosa (triplicate 2), 16 µM; in the assay on Pseudomonas aeruginosa (triplicate 3), 16 µM. For the same sequence, the Minimum inhibitory concentration stood at 8 µM in the assay on Candida albicans (setting [2]); 8 µM in the assay on Candida albicans (triplicate 2); 8 µM with Candida albicans (triplicate 3); 8 µM with Staphylococcus aureus (CLSI M7-A10, triplicate 1); 8 µM in the assay with Staphylococcus aureus (triplicate 2); 8 µM in the assay with Staphylococcus aureus (triplicate 3). Moreover, the “Minimum inhibitory concentration, Average” value in the assay on Escherichia coli stood at 8.0 µM; with Pseudomonas aeruginosa, 16.0 µM; with Candida albicans, 8.0 µM; in the assay with Staphylococcus aureus, 8.0 µM.

Turning to “GIGKFLHSAKKFGKAFVGEIMNS [Mag-2a, Magainin-2a, reference compound]”, the Minimum inhibitory concentration was determined as 8 µM in the assay on Escherichia coli (CLSI M7-A10, triplicate 1); 8 µM in the assay on Escherichia coli (triplicate 2); 8 µM with Escherichia coli (triplicate 3); 512 µM in the assay on Pseudomonas aeruginosa (CLSI M7-A10, triplicate 1); 512 µM in the assay with Pseudomonas aeruginosa (triplicate 2); 512 µM in the assay on Pseudomonas aeruginosa (triplicate 3). Further, the Minimum inhibitory concentration with Candida albicans (setting [2]) turned out to be 64 µM; in the assay on Candida albicans (triplicate 2) it was 64 µM; with Candida albicans (triplicate 3) it was 64 µM; with Staphylococcus aureus (CLSI M7-A10, triplicate 1), 512 µM; with Staphylococcus aureus (triplicate 2), 512 µM; in the assay with Staphylococcus aureus (triplicate 3), 512 µM. Besides, the “Minimum inhibitory concentration, Average” value was 8.0 µM in the assay on Escherichia coli, 512.0 µM with Pseudomonas aeruginosa, 64.0 µM in the assay with Candida albicans and 512.0 µM in the assay on Staphylococcus aureus.

“GLKDMIKNLAKEAAVKLAGAVINKFSPQPQ [Nat-1, Nattererin-1, reference compound]”: the Minimum inhibitory concentration with Escherichia coli (CLSI M7-A10, triplicate 1) stood at 8 µM; in the assay with Escherichia coli (triplicate 2), 8 µM; in the assay with Escherichia coli (triplicate 3), 8 µM; with Pseudomonas aeruginosa (CLSI M7-A10, triplicate 1), 32 µM; in the assay on Pseudomonas aeruginosa (triplicate 2), 32 µM; with Pseudomonas aeruginosa (triplicate 3), 32 µM. The Minimum inhibitory concentration was 16 µM with Candida albicans (setting [2]); 16 µM in the assay with Candida albicans (triplicate 2); 16 µM with Candida albicans (triplicate 3); 16 µM in the assay with Staphylococcus aureus (CLSI M7-A10, triplicate 1); 32 µM in the assay with Staphylococcus aureus (triplicate 2); 32 µM in the assay with Staphylococcus aureus (triplicate 3). Further, the “Minimum inhibitory concentration, Average” value in the assay on Escherichia coli turned out to be 8.0 µM; in the assay with Pseudomonas aeruginosa, 32.0 µM; in the assay with Candida albicans, 16.0 µM; with Staphylococcus aureus, 26.7 µM.
